From ChEMBL document CHEMBL4251720, “Estrogen Receptor (ER) Subtype Selectivity Identifies 8-Prenylapigenin as an ERβ Agonist from Glycyrrhiza inflata and Highlights the Importance of Chemical and Biological Authentication” (J Nat Prod, 2018)

What was measured:
Estrogen receptor [1] = target: T1, Estrogen receptor (Homo sapiens, UniProt P03372)
T1 sequence (P03372 whole entry): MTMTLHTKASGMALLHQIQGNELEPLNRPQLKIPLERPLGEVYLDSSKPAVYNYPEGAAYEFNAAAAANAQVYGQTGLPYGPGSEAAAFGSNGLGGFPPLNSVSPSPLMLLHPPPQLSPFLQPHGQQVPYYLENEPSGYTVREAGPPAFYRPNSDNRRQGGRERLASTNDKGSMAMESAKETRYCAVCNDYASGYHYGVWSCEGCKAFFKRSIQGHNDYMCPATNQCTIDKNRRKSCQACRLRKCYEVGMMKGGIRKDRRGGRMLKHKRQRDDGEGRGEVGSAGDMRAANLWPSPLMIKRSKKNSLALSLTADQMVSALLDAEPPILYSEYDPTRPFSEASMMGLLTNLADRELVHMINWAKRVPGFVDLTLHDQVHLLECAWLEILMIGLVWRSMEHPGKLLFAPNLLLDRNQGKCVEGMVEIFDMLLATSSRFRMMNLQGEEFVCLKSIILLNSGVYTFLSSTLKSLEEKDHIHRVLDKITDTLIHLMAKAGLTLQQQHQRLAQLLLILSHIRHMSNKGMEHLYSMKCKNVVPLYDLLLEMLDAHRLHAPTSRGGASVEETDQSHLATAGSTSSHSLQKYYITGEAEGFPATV
Description: Estrogenic activity at ERalpha in human Ishikawa cells assessed as induction of alkaline phosphatase activity using p-nitrophenol as substrate treated for 96 hrs followed by substrate addition by spectrophotometric method

Estrogen receptor beta [2] = target: T2, Estrogen receptor beta (Homo sapiens, UniProt Q92731)
Description: (§1) Estrogenic activity at ERbeta (unknown origin) expressed in human MDA-MB-231/beta41 cells after 18 hrs by renilla luciferase reporter gene assay

[3] = target: T3, Estrogen receptor alpha (ERalpha) (Homo sapiens, UniProt P03372); assay: in vitro; conditions: Ishikawa cells, probe p-nitrophenol (so in the source) as alkaline phosphatase substrate
T3 sequence (P03372 whole entry): T1 sequence (P03372 whole entry)
Description: Estrogenic activity at ERalpha in human Ishikawa cells assessed as induction of alkaline phosphatase activity using p-nitrophenol as substrate treated for 96 hrs followed by substrate addition by spectrophotometric method relative to estradiol

Estrogen receptor [4] = target: T1, Estrogen receptor; assay: Estrogenic activity at ERalpha in human Ishikawa cells assessed as induction of alkaline phosphatase activity at 0.01 to 1 uM using […] as substrate treated for 96 hrs followed by substrate addition by spectrophotometric method; type: cell-based
Estrogen receptor beta [5] = target: T2, Estrogen receptor beta; remark: listed apart in the source
Description: as §1

T2 sequence (Q92731 whole entry): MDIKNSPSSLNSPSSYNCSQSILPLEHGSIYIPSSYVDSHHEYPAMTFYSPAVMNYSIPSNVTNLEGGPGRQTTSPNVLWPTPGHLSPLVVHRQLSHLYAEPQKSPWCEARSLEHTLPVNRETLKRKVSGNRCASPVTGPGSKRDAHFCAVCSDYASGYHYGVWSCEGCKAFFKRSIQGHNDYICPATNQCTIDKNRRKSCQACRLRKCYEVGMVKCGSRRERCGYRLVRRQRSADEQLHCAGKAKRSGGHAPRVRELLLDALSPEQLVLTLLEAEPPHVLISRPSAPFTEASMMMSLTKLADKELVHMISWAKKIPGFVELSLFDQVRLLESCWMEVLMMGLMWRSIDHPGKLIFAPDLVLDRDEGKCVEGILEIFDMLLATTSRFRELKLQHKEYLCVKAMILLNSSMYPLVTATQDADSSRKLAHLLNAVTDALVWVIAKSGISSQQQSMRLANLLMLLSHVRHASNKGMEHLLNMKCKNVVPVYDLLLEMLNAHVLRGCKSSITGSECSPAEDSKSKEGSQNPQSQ

What does the source list for `CCCc1c(-c2ccc(O)cc2)nn(-c2ccc(O)cc2)c1-c1ccc(O)cc1` [PROPYLPYRAZOLETRIOL]?
EC50 (Estrogen receptor [1]): 1 nM; EC50 (Estrogen receptor beta [2]): Not Active; Emax at 96 h [3]: 119%

How did the Activity (Estrogen receptor [4]) turn out when `COc1cc(O)c(C(=O)/C=C/c2ccc(O)cc2)cc1CC=C(C)C` was run?
Its Activity is “Not Active”.

For `CC(C)=CCc1c(O)cc(O)c2c1O[C@H](c1ccc(O)cc1)CC2=O`, which EC50 (Estrogen receptor beta [5]) is on record?
The EC50 was 5 nM.
